Measured values: PubChem BioAssay (NCI)
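Where inhibition never reached the appropriate level, the endpoint shown equals the highest concentration tested. Otherwise, values were interpolated linearly from a five-concentration, 48-hour dose response in 96-well plates. At the TGI there is no net growth.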

How the values were obtained:
Assay in all cases: NCI-60 cell line screen, 48 h
[1] = tested on: HCC-2998 colon
[2] = tested on: M14 melanoma
[3] = tested on: MDA-MB-231 breast
[4] = tested on: MDA-N
[5] = tested on: HT29 colon
[6] = tested on: SR leukemia
[7] = tested on: ACHN renal
[8] = tested on: DU-145 prostate
[9] = tested on: NCI-H460 lung
[10] = tested on: BT-549 breast
[11] = tested on: HOP-92 NSCLC
[12] = tested on: LOX IMVI melanoma
[13] = tested on: SK-MEL-2 melanoma
[14] = tested on: A498 renal
[15] = tested on: HOP-62 NSCLC
[16] = tested on: SNB-75 CNS
[17] = tested on: NCI/ADR-RES ovarian
[18] = tested on: KM12 colon
[19] = tested on: 786-0 renal
[20] = tested on: OVCAR-5 ovarian
[21] = tested on: SF-295 CNS
[22] = tested on: U251 CNS
[23] = tested on: CAKI-1 renal
[24] = tested on: SF-539 CNS
[25] = tested on: NCI-H522 lung
[26] = tested on: PC-3 prostate
[27] = tested on: MOLT-4 leukemia
[28] = tested on: SNB-19 CNS
[29] = tested on: T-47D breast
[30] = tested on: OVCAR-8 ovarian
[31] = tested on: HCT-116 colon
[32] = tested on: OVCAR-3 ovarian
[33] = tested on: HL-60(TB) leukemia
[34] = tested on: RPMI-8226 leukemia
[35] = tested on: SW-620 colon
[36] = tested on: CCRF-CEM leukemia
[37] = tested on: SK-MEL-28 melanoma
[38] = tested on: UO-31 renal
[39] = tested on: SN12C renal
[40] = tested on: RXF 393 renal
[41] = tested on: SK-MEL-5 melanoma
[42] = tested on: MDA-MB-435
[43] = tested on: UACC-62 melanoma
[44] = tested on: SK-OV-3 ovarian
[45] = tested on: HS 578T breast
[46] = tested on: EKVX NSCLC
[47] = tested on: UACC-257 melanoma
[48] = tested on: A549 NSCLC
[49] = tested on: TK-10 renal
[50] = tested on: MCF7 breast
[51] = tested on: IGROV1 ovarian
[52] = tested on: COLO 205 colon
[53] = tested on: HCT-15 colon
[54] = tested on: K-562 leukemia
[55] = tested on: SF-268 CNS
[56] = tested on: NCI-H23 lung
[57] = tested on: MALME-3M melanoma
[58] = tested on: NCI-H226 lung
[59] = tested on: OVCAR-4 ovarian

O=C(O)Cc1cc(F)ccc1C(=O)O
TGI [1]: > 100 µM | TGI [2]: > 100 µM | TGI [3]: > 100 µM | TGI [4]: > 100 µM | TGI [5]: > 100 µM | TGI [6]: > 100 µM | TGI [7]: > 100 µM | TGI [8]: > 100 µM | TGI [9]: > 100 µM | TGI [10]: > 100 µM | TGI [11]: > 100 µM | TGI [12]: > 100 µM | TGI [13]: > 100 µM | TGI [14]: > 100 µM | TGI [15]: > 100 µM | TGI [16]: > 100 µM | TGI [17]: > 100 µM | TGI [18]: > 100 µM | TGI [19]: > 100 µM | TGI [20]: > 100 µM | TGI [21]: > 100 µM | TGI [22]: > 100 µM | TGI [23]: > 100 µM | TGI [24]: > 100 µM | TGI [25]: > 100 µM | TGI [26]: > 100 µM | TGI [27]: > 100 µM | TGI [28]: > 100 µM | TGI [29]: > 100 µM | TGI [30]: > 100 µM | TGI [31]: > 100 µM | TGI [32]: > 100 µM | TGI [33]: > 100 µM | TGI [34]: > 100 µM | TGI [35]: > 100 µM | TGI [36]: > 100 µM | TGI [37]: > 100 µM | TGI [38]: > 100 µM | TGI [39]: > 100 µM | TGI [40]: > 100 µM | TGI [41]: > 100 µM | TGI [42]: > 100 µM | TGI [43]: > 100 µM | TGI [44]: > 100 µM | TGI [45]: > 100 µM | TGI [46]: > 100 µM | TGI [47]: > 100 µM | TGI [48]: > 100 µM | TGI [49]: > 100 µM | TGI [50]: > 100 µM | TGI [51]: 75.9 µM | TGI [52]: > 100 µM | TGI [53]: > 100 µM | TGI [54]: > 100 µM | TGI [55]: > 100 µM | TGI [56]: > 100 µM

Clc1ccc(-c2nc3ccc(Cl)cc3[nH]2)cc1
TGI [1]: 89.1 µM | TGI [2]: > 100 µM | TGI [3]: > 100 µM | TGI [4]: 85.2 µM | TGI [5]: > 100 µM | TGI [6]: > 100 µM | TGI [7]: > 100 µM | TGI [8]: > 100 µM | TGI [9]: 98.4 µM | TGI [10]: > 100 µM | TGI [11]: 75.1 µM | TGI [12]: 69.5 µM | TGI [13]: 67.4 µM | TGI [15]: > 100 µM | TGI [16]: > 100 µM | TGI [17]: 56.1 µM | TGI [57]: > 100 µM | TGI [18]: 98.1 µM | TGI [19]: > 100 µM | TGI [21]: 74.9 µM | TGI [22]: > 100 µM | TGI [23]: > 100 µM | TGI [24]: > 100 µM | TGI [58]: > 100 µM | TGI [25]: 80.1 µM | TGI [26]: 77.5 µM | TGI [27]: > 100 µM | TGI [28]: > 100 µM | TGI [29]: > 100 µM | TGI [30]: > 100 µM | TGI [31]: 53.3 µM | TGI [32]: 96.5 µM | TGI [33]: > 100 µM | TGI [34]: 79.1 µM | TGI [35]: > 100 µM | TGI [36]: > 100 µM | TGI [37]: > 100 µM | TGI [38]: 79.3 µM | TGI [39]: 86.6 µM | TGI [40]: > 100 µM | TGI [41]: > 100 µM | TGI [42]: 84.5 µM | TGI [43]: > 100 µM | TGI [59]: > 100 µM | TGI [44]: > 100 µM | TGI [45]: > 100 µM | TGI [46]: > 100 µM | TGI [47]: > 100 µM | TGI [48]: > 100 µM | TGI [49]: > 100 µM | TGI [50]: > 100 µM | TGI [51]: > 100 µM | TGI [52]: 34.9 µM | TGI [53]: > 100 µM | TGI [54]: > 100 µM | TGI [55]: > 100 µM | TGI [56]: 90.3 µM

CN1CCN(CCCNN)CC1
TGI [1]: > 100 µM | TGI [2]: > 100 µM | TGI [3]: > 100 µM | TGI [4]: > 100 µM | TGI [5]: > 100 µM | TGI [6]: > 100 µM | TGI [7]: > 100 µM | TGI [8]: > 100 µM | TGI [9]: > 100 µM | TGI [10]: > 100 µM | TGI [11]: > 100 µM | TGI [12]: > 100 µM | TGI [13]: > 100 µM | TGI [14]: > 100 µM | TGI [15]: > 100 µM | TGI [16]: > 100 µM | TGI [17]: > 100 µM | TGI [18]: > 100 µM | TGI [19]: > 100 µM | TGI [20]: > 100 µM | TGI [21]: > 100 µM | TGI [22]: > 100 µM | TGI [23]: > 100 µM | TGI [24]: > 100 µM | TGI [58]: > 100 µM | TGI [25]: > 100 µM | TGI [26]: > 100 µM | TGI [27]: 1.44 µM | TGI [28]: > 100 µM | TGI [29]: > 100 µM | TGI [30]: > 100 µM | TGI [31]: > 100 µM | TGI [32]: > 100 µM | TGI [33]: > 100 µM | TGI [34]: > 100 µM | TGI [35]: > 100 µM | TGI [37]: > 100 µM | TGI [38]: > 100 µM | TGI [39]: > 100 µM | TGI [40]: > 100 µM | TGI [41]: > 100 µM | TGI [42]: > 100 µM | TGI [43]: > 100 µM | TGI [59]: > 100 µM | TGI [44]: > 100 µM | TGI [45]: > 100 µM | TGI [46]: > 100 µM | TGI [47]: > 100 µM | TGI [48]: > 100 µM | TGI [49]: > 100 µM | TGI [50]: > 100 µM | TGI [51]: > 100 µM | TGI [52]: > 100 µM | TGI [53]: > 100 µM | TGI [54]: 37.5 µM | TGI [55]: > 100 µM | TGI [56]: > 100 µM
